Laboratory results reported in article PMC6934184, “Selective DNA-PKcs inhibition extends the therapeutic index of localized radiotherapy and chemotherapy” (The Journal of Clinical Investigation, 2019).

Target: T1, CDK2/cyclin E1 (Homo sapiens, UniProt P24941)
T1 construct: purchased Thermo Fisher Scientific (Life Technologies) SelectScreen
Assay: SelectScreen LanthaScreen
Type: binding
Conditions: 1 µM
How it was run: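 Percent values come from Thermo SelectScreen profiling of NU5455, combining activity and binding assays. CSF1R was run in Z'LYTE format at Km app ATP, and CAMK1 in Adapta format with ATP listed at 10.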

CN(C(=O)CN1CCOCC1)c1ccc2sc3c(-c4cccc5c(=O)cc(N6CC7CCC(C6)O7)oc45)cccc3c2c1 [NU5455]
% displacement: 2.7%
